# In publication PMC11474028, “Lipopeptide antibiotics disrupt interactions of undecaprenyl phosphate with UptA” (Proceedings of the National Academy of Sciences of the …, 2024):
# Tested on: UptA Q64A
# Experiment: Native MS of C55-P binding to UptA mutant Q64A
# Parameters: species or system Bacillus subtilis
# Conditions: 5 µM protein, 10 µM C55-P, pH 8.02, 0.05% LDAO, 200 mM ammonium acetate, collisional activation 100 V; three biological replicates
# Source text: Conserved arginine residues in the putative membrane reentrant loops of E. coli DedA proteins YqjA (R130) and YghB (R136) are important for the cellular role of these proteins ([36]). […] How these residues impact substrate interactions, however, is not known. Based on the model structure of UptA predicted by AlphaFold, the R112 residue should engage Q64 while R118 is able to form hydrogen bonds with E32, H119, and W146 to potentially stabilize the membrane reentrant loops (Fig. 3A). To test for the impact of these residues on C55-P binding, we generated the E32A, Q64A, R112A, R118A, H119A, and W146A UptA single mutants. After purification of the proteins, using the same protocol as the wild type (WT) (Materials and Methods and SI Appendix, Fig. S5), we equilibrated aliquots of each protein variant (5 µM) with C55-P (10 µM) and recorded spectra using the same instrument settings. […] We additionally generated a double mutant R112E/R118E in which the polarity of both native arginine residues in the wild type are reversed.
# Expression and purification of UptA
# Plasmids were used to transform chemically competent E. coli C43(DE3) cells (Lucigen) and selected on LB/Agar containing 100 μg/ml ampicillin at 37 °C. Single colonies were used to inoculate 60 mL LB containing 100 μg/ml ampicillin and were grown at 37 °C overnight for 16 h. […]
smiles,measurement,value
"CC(C)=CCC/C(C)=C/CC/C(C)=C/CC/C(C)=C\CC/C(C)=C\CC/C(C)=C\CC/C(C)=C\CC/C(C)=C\CC/C(C)=C\CC/C(C)=C\CC/C(C)=C\COP(=O)(O)O [C55-P, undecaprenyl phosphate]","reduction in C55-P binding intensity compared to wild type, Q64A (in words)",modest reduction
